Where two headings read alike, the source gives them in different places.
Experiments:
[1] = tested on: Leishmania infantum MHOM/MA(BE)/67/ITMAP263 intracellular amastigotes; details: for IC50: read-out: L. infantum MHOM/MA(BE)/67/ITMAP263 intracellular amastigotes IC50
[2] = tested on: L. donovani MHOM/ET/67/L82 intracellular amastigotes; details: read-out: L. donovani MHOM/ET/67/L82 intracellular amastigotes IC50
[3] = tested on: MRC-5SV2 cells; test: Cytotoxicity assay on MRC-5SV2 cells (resazurin)
[4] = tested on: primary peritoneal mouse macrophages (PMM); details: for IC50: read-out: PMM IC50; for SI (vs PMM): PMM IC50 / L. infantum IC50
[5] = in vitro; details: Swiss, mouse
[6] = in vitro; details: human
[7] = tested on: Trypanosoma cruzi, Tulahuen CL2, beta-galactosidase strain; test: microbe, parasite or virus in culture; details: MRC5, read-out: T. cruzi Tulahuen C4 (LacZ) IC50
[8] = tested on: Leishmania infantum MHOM/MA(BE)/67/ITMAP263 intracellular amastigotes; test: microbe, parasite or virus in culture; details: Macrophage, in Mus musculus
[9] = in vitro; details: human, microsomes, pH 7.4, HLM CLint, human liver microsomes
[10] = physchem; details: HPLC, Ascentis Express RP Amide column, pH 7.4, eLogD
[11] = in vitro; details: mouse, microsomes, pH 7.4, MLM CLint, mouse liver microsomes
[12] = read-out: L. Inf. pIC50, from L. infantum intracellular amastigote IC50 (converted)
[13] = read-out: L. infantum MHOM/MA(BE)/67/ITMAP263 intracellular amastigotes IC50

Compound | L. Inf. pIC50 [1] | IC50 [1] [µM] | IC50 [2] [µM] | CC50 [3] [µM] | IC50 [4] [µM] | IC50 [5] [µM] | CC50 at 3 days [6] [µM] | IC50 [7] [µM] | SI (vs PMM) [4] | IC50 [8, 12] [µM] | IC50 [8, 13] [µM] | microsomal CLint at 0.5 μM [9] [µL/min/mg] | chromatographic logD [10] | microsomal CLint at 0.5 μM [11] [µL/min/mg] | CC50 at 5 days [5] [µM]
CN(Cc1ccccc1NCC(=O)Nc1cccc(S(=O)(=O)N(C)C)c1)C1CCCCC1 [Compound Z31013342] | 4.67 | 21.5 | > 32 | > 32 | > 32 |  |  |  |  |  |  |  |  |  | 
O=S(=O)(NCc1cccs1)c1ccc2c(c1)CCCC2 [Compound Z45423905] |  | > 32 | > 32 | 27.1 | > 32 |  |  |  |  |  |  |  |  |  | 
COc1ccccc1S(=O)(=O)N(Cc1ccccc1)Cc1ccccc1 [Compound Z45508946] | 6.47 | 0.34 | 1.59 | > 32 | > 32 |  |  |  |  |  |  |  |  |  | 
COc1ccc(OC)c(S(=O)(=O)N(Cc2ccccc2)Cc2ccccc2)c1 [Compound Z45508995] | 6 | 1.01 | 1.19 | 6.41 | > 32 |  |  |  |  |  |  |  |  |  | 
CC1CCc2ccccc2N1CC(=O)Nc1ccc(Cl)c(S(=O)(=O)N(C)C)c1 (centres unmarked) [Compound Z46500410] |  | > 32 | > 32 | > 32 | > 32 |  |  |  |  |  |  |  |  |  | 
Cc1ccc(NC(=O)c2[nH]c(C)c(C(=O)OC(C)C)c2C)cc1S(=O)(=O)N1CCCCC1 [Compound Z51733284] | 4.99 | 10.2 | 16.2 | 3.11 | 16 |  |  |  |  |  |  |  |  |  | 
CCCCNS(=O)(=O)c1cccc(NC(=O)c2cnc(C)cn2)c1 [Compound Z88583029] |  | > 32 | > 32 | > 32 | > 32 |  |  |  |  |  |  |  |  |  | 
CCCCNS(=O)(=O)c1cccc(NC(=O)c2cc3ccccc3[nH]2)c1 [Compound Z88584859] | 4.79 | 16.2 | 25.4 | > 32 | > 32 |  |  |  |  |  |  |  |  |  | 
CCCCNS(=O)(=O)c1cccc(NC(=O)c2cc(C)c(C)s2)c1 [Compound Z88584860] |  | > 32 | > 32 | > 32 | > 32 |  |  |  |  |  |  |  |  |  | 
CCCCNS(=O)(=O)c1cccc(NC(=O)c2ccc(C)c(OC)c2)c1 [Compound Z109591588] |  | > 32 | > 32 | > 32 | > 32 |  |  |  |  |  |  |  |  |  | 
COC(=O)c1c(C)[nH]c(C(=O)Nc2cccc(S(C)(=O)=O)c2)c1C [Compound Z109929482] |  | > 32 | > 32 | > 32 | > 32 |  |  |  |  |  |  |  |  |  | 
CC1CCc2ccccc2N1CC(=O)N1CCCc2cc(S(=O)(=O)N(C)C)ccc21 (centres unmarked) [Compound Z195652240] |  | > 32 | > 32 | > 32 | > 32 |  |  |  |  |  |  |  |  |  | 
COc1ccc(S(=O)(=O)N(Cc2cccc(F)c2)Cc2cccc(F)c2)cc1OC [Compound Z220633200] | 4.99 | 10.1 | 25.4 | > 32 | > 32 |  |  |  |  |  |  |  |  |  | 
COc1ccc(S(=O)(=O)N(Cc2ccccc2C#N)Cc2ccccc2C#N)cc1OC [Compound Z220633250] | 5.32 | 4.76 | > 32 | > 32 | > 32 |  |  |  |  |  |  |  |  |  | 
COc1ccc(S(=O)(=O)N(C)C)cc1NC(=O)C1CCCc2ccccc21 (centres unmarked) [Compound Z300980532] |  | > 32 | > 32 | > 32 | > 32 |  |  |  |  |  |  |  |  |  | 
CN(C)S(=O)(=O)c1cccc(NC(=O)CN2CCCc3cc(F)cc(F)c32)c1 [Compound Z369155588] |  | > 32 | > 32 | > 32 | > 32 |  |  |  |  |  |  |  |  |  | 
CNC(=O)NC(=O)COc1ccc(S(N)(=O)=O)cc1 [Compound Z381095182] |  | > 32 | > 32 | > 32 | > 32 |  |  |  |  |  |  |  |  |  | 
COC(=O)c1cccc(C(=O)Nc2cccc(S(=O)(=O)N3CCCC3)c2)n1 [Compound Z441654950] |  | > 32 | > 32 | > 32 | > 32 |  |  |  |  |  |  |  |  |  | 
Fc1cccc(Cl)c1CNc1ccccc1-n1cccn1 [Compound Z739504072] |  | > 32 | > 32 | > 32 | > 32 |  |  |  |  |  |  |  |  |  | 

Compound | L. Inf. pIC50 [1] | IC50 [1] [µM] | IC50 [2] [µM] | CC50 [3] [µM] | IC50 [4] [µM] | IC50 [5] [µM] | CC50 at 3 days [6] [µM] | IC50 [7] [µM] | SI (vs PMM) [4] | IC50 [8, 12] [µM] | IC50 [8, 13] [µM] | microsomal CLint at 0.5 μM [9] [µL/min/mg] | chromatographic logD [10] | microsomal CLint at 0.5 μM [11] [µL/min/mg] | CC50 at 5 days [5] [µM]
CCc1c(C(=O)Nc2cc(S(=O)(=O)NC)ccc2C)[nH]c(C)c1C(C)=O [Compound Z792473370] | 4.67 | 21.5 | > 32 | > 32 | > 32 |  |  |  |  |  |  |  |  |  | 
CCCc1c(C(=O)Nc2cccc(S(=O)(=O)NCc3ccco3)c2)[nH]c(C)c1C(C)=O [Compound Z966334826] | 4.84 | 14.5 | > 32 | 12.8 | > 32 |  |  |  |  |  |  |  |  |  | 
Cc1ccc(NC(=O)CN(CC(C)C)c2cccc(O)c2)cc1S(=O)(=O)N(C)C [Compound Z1317978681] | 4.79 | 16.1 | 19 | 28.4 | > 32 |  |  |  |  |  |  |  |  |  | 
Cc1ccc(NC(=O)CN2CCCCc3ccccc32)cc1S(=O)(=O)N1CCOCC1 [Compound Z1318043362] | 4.78 | 16.6 | 25.4 | > 32 | 16 |  |  |  |  |  |  |  |  |  | 
Cc1cc(C)c(C#N)c(SCSc2nc(C)cc(C)c2C#N)n1 [DNDI0003297456] |  |  |  |  |  | > 64 | > 64 | > 64 | 1 | > 64 | > 64 |  |  |  | 
CCC(Cc1ccccc1)S(=O)(=O)c1nc(C)cc(C)c1C#N (centres unmarked) [DNDI0003297459] |  |  |  |  |  | > 64 | > 64 | 45.2 | 3 | 20.4 | 20.2 |  |  |  | 
CCCCC(=O)Nc1cccnc1S(=O)(=O)CCOc1ccccc1 [DNDI0003363560] |  |  |  |  |  | 32 | 29.7 | 14.7 | 1 | 32.4 | 32.5 |  |  |  | 
CONS(=O)(=O)c1cc(Cl)ccc1OC [DNDI0003364475] |  |  |  |  |  | > 64 | > 64 | > 64 | 1 | > 64 | > 64 |  |  |  | 
COCCN(Cc1ccccc1)S(=O)(=O)c1cc(OC)ccc1OC [DNDI0003365566] |  |  |  |  |  | > 64 | 39.4 | 32.8 | 31 | 2.09 | 2.07 | 253 |  |  | 
CCN(Cc1ccc(F)cc1)S(=O)(=O)c1cc(Cl)ccc1OC [DNDI0003366065] |  |  |  |  |  | > 64 | 59.5 | 6.88 | 3 | 21.9 | 22 | 352 | 4.4 |  | 
COc1ccc(OC)c(S(=O)(=O)N(C)Cc2ccc(F)cc2)c1 [DNDI0003366066] |  |  |  |  |  | > 64 | > 64 | 26.7 | 5 | 11.7 | 11.7 | 414 |  |  | 
COc1ccc(OC)c(S(=O)(=O)N(CCO)Cc2ccccc2)c1 [DNDI0003366067] |  |  |  |  |  | > 64 | > 64 | 51.2 | 1 | 52.5 | 52.5 | 161 | 2.9 |  | 
COc1ccc(OC)c(S(=O)(=O)N(Cc2ccc(F)cc2)Cc2ccc(F)cc2)c1 [DNDI0003366069] |  |  |  |  |  | > 64 | > 64 | 6.35 | 119 | 0.537 | 0.54 |  |  |  | 
CCN(Cc1ccccc1)S(=O)(=O)c1cc(F)ccc1OC [DNDI0003366070] |  |  |  |  |  | > 64 | 49.6 | 28.4 | 6 | 11 | 11 | 383 | 3.9 |  | 
COc1ccc(F)cc1S(=O)(=O)N(Cc1ccccc1)Cc1ccccc1 [DNDI0003366071] |  |  |  |  |  | > 64 | > 64 | 6.82 | 47 | 1.38 | 1.37 | 955 |  |  | 
COc1ccc(Cl)cc1S(=O)(=O)N(Cc1ccccc1)Cc1ccccc1 [DNDI0003366072] |  |  |  |  |  | > 64 | > 64 | 8.16 |  | 1.38 | 1.37 | 407 |  | 1350 | 
COc1ccc(Cl)cc1S(=O)(=O)NCCN(C)C [DNDI0003366089] |  |  |  |  |  | > 64 | > 64 | > 64 | 1 | > 64 | > 64 | 33 | 2.1 |  | 
CC(=O)Nc1ccc(S(=O)(=O)NCc2ccccc2)cc1 [DNDI0003366092] |  |  |  |  |  | > 64 | > 64 | > 64 | 1 | > 64 | > 64 |  |  |  | 
CC/C(=C(\c1ccccc1)c1ccc(OCCN(C)C)cc1)c1ccccc1 [Tamoxifen, reference compound] |  |  |  |  |  |  |  |  |  |  |  |  |  |  | 5 to 10
